Test results as given in ChEMBL document CHEMBL1156232, “Non-classical antifolates. Part 2: synthesis, biological evaluation, and molecular modeling study of some new 2,6-substituted-quinazolin-4-ones” (Bioorg Med Chem, 2010).
Converted amounts (≈) assume the structure as drawn. The source made the active and inactive calls. The rule behind the calls is not given here.

Assays:
Staphylococcus aureus [1] = experiment: Antibacterial activity against Staphylococcus aureus at 200 ug/disk after 24 hrs by disk diffusion method; assay type: functional; conditions: for zone of inhibition at 200 µg/disc: read-out: DIZ
Staphylococcus aureus [2] = experiment: Antibacterial activity against Staphylococcus aureus after 24 hrs by microdilution susceptibility method; assay type: functional
Bacillus subtilis [3] = experiment: Antibacterial activity against Bacillus subtilis at 200 ug/disk after 24 hrs by disk diffusion method; assay type: functional; conditions: for zone of inhibition at 200 µg/disc: read-out: DIZ
Bacillus subtilis [4] = experiment: Antibacterial activity against Bacillus subtilis after 24 hrs by microdilution susceptibility method; assay type: functional
Micrococcus luteus [5] = experiment: Antibacterial activity against Micrococcus luteus at 200 ug/disk after 24 hrs by disk diffusion method; assay type: functional; conditions: for zone of inhibition at 200 µg/disc: Micrococcus luteus, 24 h, read-out: DIZ
Micrococcus luteus [6] = experiment: Antibacterial activity against Micrococcus luteus after 24 hrs by microdilution susceptibility method; assay type: functional
Escherichia coli [7] = experiment: Antibacterial activity against Escherichia coli at 200 ug/disk after 24 hrs by disk diffusion method; assay type: functional; conditions: for zone of inhibition at 200 µg/disc: read-out: DIZ
Escherichia coli [8] = experiment: Antibacterial activity against Escherichia coli after 24 hrs by microdilution susceptibility method; assay type: functional
Pseudomonas aeruginosa [9] = experiment: Antibacterial activity against Pseudomonas aeruginosa at 200 ug/disk after 24 hrs by disk diffusion method; assay type: functional; conditions: for zone of inhibition at 200 µg/disc: read-out: DIZ
Candida albicans [10] = experiment: Antifungal activity against Candida albicans at 200 ug/disk after 48 hrs by disk diffusion method; assay type: functional, organism-based
Candida albicans [11] = experiment: Antifungal activity against Candida albicans after 48 hrs by microdilution susceptibility method; assay type: functional, organism-based
Dihydrofolate reductase [12] = molecular target: T1, Dihydrofolate reductase (Bos taurus, UniProt P00376)
T1 sequence (P00376 whole entry): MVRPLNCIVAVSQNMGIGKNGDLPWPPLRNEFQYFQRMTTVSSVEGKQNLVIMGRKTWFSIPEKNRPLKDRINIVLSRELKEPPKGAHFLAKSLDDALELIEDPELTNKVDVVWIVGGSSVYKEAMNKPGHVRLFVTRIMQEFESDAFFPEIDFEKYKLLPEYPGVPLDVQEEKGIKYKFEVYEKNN
Description: Inhibition of bovine DHFR after 2 mins

Dihydrofolate reductase [13] = molecular target: T2, Dihydrofolate reductase (Homo sapiens, UniProt P00374)
T2 sequence (P00374 whole entry): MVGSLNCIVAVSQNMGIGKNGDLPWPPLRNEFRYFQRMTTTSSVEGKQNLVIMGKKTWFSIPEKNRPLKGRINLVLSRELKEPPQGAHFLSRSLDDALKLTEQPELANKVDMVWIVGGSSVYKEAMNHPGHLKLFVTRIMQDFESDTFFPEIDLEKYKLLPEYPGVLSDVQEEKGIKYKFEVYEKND
Description: Inhibition of human DHFR after 2 mins

Pseudomonas aeruginosa [14] = experiment: Antibacterial activity against Pseudomonas aeruginosa after 24 hrs by microdilution susceptibility method; assay type: functional
MDA-MB-468 = experiment: Antitumor activity against human MDA-MB-468 cells after 48 hrs by SRB assay; assay type: functional; conditions: MDA-MB-468, 48 h
[15] = Antitumor activity against human leukemia cells after 48 hrs by SRB assay; assay type: functional; conditions: Leukemia cell
[16] = Antitumor activity against human non small cell lung cancer cells after 48 hrs by SRB assay; assay type: functional; conditions: Cancer cell lines
[17] = Antitumor activity against human colon cancer cells after 48 hrs by SRB assay; assay type: functional; conditions: Cancer cell lines
[18] = Antitumor activity against human CNS cancer cells after 48 hrs by SRB assay; assay type: functional; conditions: Cancer cell lines
[19] = Antitumor activity against human melanoma cells after 48 hrs by SRB assay; assay type: functional; conditions: Melanoma cell
[20] = Antitumor activity against human ovarian cancer cells after 48 hrs by SRB assay; assay type: functional; conditions: Cancer cell lines
[21] = Antitumor activity against human renal cancer cells after 48 hrs by SRB assay; assay type: functional; conditions: Cancer cell lines
[22] = Antitumor activity against human prostate cancer cells after 48 hrs by SRB assay; assay type: functional; conditions: Cancer cell lines
[23] = Antitumor activity against human breast cancer cells after 48 hrs by SRB assay; assay type: functional; conditions: Cancer cell lines
Staphylococcus aureus [24] = experiment: Antibacterial activity against Staphylococcus aureus at 100 ug/disk after 24 hrs by disk diffusion method; assay type: functional
Bacillus subtilis [25] = experiment: Antibacterial activity against Bacillus subtilis at 100 ug/disk after 24 hrs by disk diffusion method; assay type: functional
HT-29 = experiment: Antitumor activity against human HT-29 cells after 48 hrs by SRB assay; assay type: functional; conditions: HT-29, 48 h
OVCAR-4 = experiment: Antitumor activity against human OVCAR4 cells after 48 hrs by SRB assay; assay type: functional; conditions: OVCAR-4, 48 h

| Molecule | MIC (Staphylococcus aureus [2]) [µg/mL] | zone of inhibition at 200 µg/disc (Bacillus subtilis [3]) [mm] | MIC (Bacillus subtilis [4]) [µg/mL] | zone of inhibition at 200 µg/disc (Escherichia coli [7]) [mm] | MIC (Escherichia coli [8]) [µg/mL] | diameter of the inhibition zone (DIZ) (Pseudomonas aeruginosa [9]) | Activity (Candida albicans [10]) | Activity (Candida albicans [11]) | IC50 (Dihydrofolate reductase [12]) [µM] | IC50 (Dihydrofolate reductase [13]) [µM] | diameter of the inhibition zone (DIZ) (Micrococcus luteus [5]) | diameter of the inhibition zone (DIZ) (Staphylococcus aureus [1]) | diameter of the inhibition zone (DIZ) (Bacillus subtilis [3]) | also measured |
| --- | --- | --- | --- | --- | --- | --- | --- | --- | --- | --- | --- | --- | --- | --- |
| C=CCSc1nc2ccc(NC/C=C/c3ccccc3)cc2c(=O)n1Cc1ccccc1 | 8 (≈ 18.2 µM) | 20 | 4 (≈ 9.1 µM) | 18 | 8 (≈ 18.2 µM) | inactive | inactive | inactive | 5 | 3 |  |  |  | zone of inhibition at 200 µg/disc (Staphylococcus aureus [1]): 19 mm; zone of inhibition at 200 µg/disc (Micrococcus luteus [5]): 16 mm; MIC (Micrococcus luteus [6]): 16 µg/mL (≈ 36.4 µM) |
| C=CCSc1nc2ccc(NC(=O)/C=C/c3ccccc3)cc2c(=O)n1Cc1ccccc1 | 8 (≈ 17.6 µM) | 18 | 8 (≈ 17.6 µM) | 18 | 8 (≈ 17.6 µM) | inactive | inactive | inactive | 0.7 | 0.5 | 18 mm |  |  | zone of inhibition at 200 µg/disc (Staphylococcus aureus [1]): 16 mm; MIC (Micrococcus luteus [6]): 8 µg/mL (≈ 17.6 µM) |
| O=c1c2cc([N+](=O)[O-])ccc2nc(SC/C=C/c2ccccc2)n1Cc1ccccc1 |  |  |  | 21 |  |  | inactive | inactive | 5 | 3 | inactive | inactive | inactive | zone of inhibition at 200 µg/disc (Pseudomonas aeruginosa [9]): 17 mm; MIC (Pseudomonas aeruginosa [14]): 16 µg/mL (≈ 37.3 µM) |
| CSc1nc2ccc(NC(=O)/C=C/c3ccccc3)cc2c(=O)n1Cc1ccccc1 |  |  |  |  |  | inactive | inactive | inactive | 0.6 | 1 | inactive | inactive | inactive | diameter of the inhibition zone (DIZ) (Escherichia coli [7]): inactive; GI50 (MDA-MB-468): 2.2 µM; GI50 [15]: 51.6 µM; TGI [15]: > 100 µM; GI50 [16]: 1.7 µM; TGI [16]: 80.9 µM; GI50 [17]: 34.5 µM; TGI [17]: > 100 µM; GI50 [18]: 1.9 µM; TGI [18]: 68.4 µM; GI50 [19]: 2.4 µM; TGI [19]: 26.9 µM; GI50 [20]: 1.1 µM; TGI [20]: > 100 µM; GI50 [21]: 2.9 µM; TGI [21]: > 100 µM; GI50 [22]: 1.6 µM; TGI [22]: > 100 µM; GI50 [23]: 3 µM; TGI [23]: > 100 µM |
| Cc1ccc2nc(S)n(Cc3ccccc3)c(=O)c2c1 |  | 18 | 4 (≈ 14.2 µM) | 17 | 4 (≈ 14.2 µM) |  | inactive | inactive | 30 |  |  | inactive |  | zone of inhibition at 200 µg/disc (Micrococcus luteus [5]): 14 mm; zone of inhibition at 200 µg/disc (Pseudomonas aeruginosa [9]): 15 mm |
| CSc1nc2ccc(N(C/C=C/c3ccccc3)C/C=C/c3ccccc3)cc2c(=O)n1Cc1ccccc1 |  | 18 | 8 (≈ 15.1 µM) | 16 | 16 (≈ 30.2 µM) | inactive | inactive | inactive | 0.6 | 0.8 | inactive | inactive |  |  |
| CCSc1nc2ccc([N+](=O)[O-])cc2c(=O)n1Cc1ccccc1 |  |  |  | 20 | 8 (≈ 23.4 µM) |  | inactive | inactive | 10 |  | inactive | inactive | inactive | zone of inhibition at 200 µg/disc (Pseudomonas aeruginosa [9]): 15 mm |
| C=CCSc1nc2ccc(N(C/C=C/c3ccccc3)C/C=C/c3ccccc3)cc2c(=O)n1Cc1ccccc1 | 4 (≈ 7.2 µM) | 20 | 4 (≈ 7.2 µM) | 16 | 16 (≈ 28.8 µM) | inactive | inactive | inactive | 0.5 | 0.7 | inactive |  |  | zone of inhibition at 200 µg/disc (Staphylococcus aureus [1]): 22 mm |
| CC(=O)NS(=O)(=O)c1ccc(N)cc1 [SULFACETAMIDE] | 1 (≈ 4.67 µM) | 25 | 2 (≈ 9.34 µM) |  |  |  |  |  | 22 | 18 |  |  |  | zone of inhibition at 100 µg/disc (Staphylococcus aureus [24]; read-out: DIZ): 28 mm; zone of inhibition at 100 µg/disc (Bacillus subtilis [25]; read-out: DIZ): 25 mm |
| O=c1c2cc([N+](=O)[O-])ccc2nc(S)n1Cc1ccccc1 | 4 (≈ 12.8 µM) | 18 | 8 (≈ 25.5 µM) |  |  | inactive | inactive | inactive | 15 |  |  |  |  | zone of inhibition at 200 µg/disc (Staphylococcus aureus [1]): 20 mm; zone of inhibition at 200 µg/disc (Micrococcus luteus [5]): 16 mm; MIC (Micrococcus luteus [6]): 16 µg/mL (≈ 51.1 µM); diameter of the inhibition zone (DIZ) (Escherichia coli [7]): inactive |
| C=CCSc1nc2ccc(C)cc2c(=O)n1Cc1ccccc1 |  |  |  |  |  | inactive | inactive | inactive | 2 | 4 | inactive | inactive | inactive | diameter of the inhibition zone (DIZ) (Escherichia coli [7]): inactive |
| GENTAMICIN |  |  |  |  |  |  |  |  |  |  |  |  |  | inhibition zone (IZ) (Bacillus subtilis [3]): 19 mm; inhibition zone (IZ) (Staphylococcus aureus [24]): 21 mm; inhibition zone (IZ) (Bacillus subtilis [25]): 19 mm |
| C=CCN(C)c1ccc2nc(SC)n(Cc3ccccc3)c(=O)c2c1 |  |  |  |  |  | inactive | inactive | inactive | 1 | 2 | inactive | inactive | inactive | diameter of the inhibition zone (DIZ) (Escherichia coli [7]): inactive |
| C=CCSc1nc2ccc(N(CC=C)CC=C)cc2c(=O)n1Cc1ccccc1 |  |  |  |  |  | inactive | inactive | inactive | 0.4 | 0.9 | inactive | inactive | inactive | diameter of the inhibition zone (DIZ) (Escherichia coli [7]): inactive |
| Nc1ccc2ncn(Cc3ccccc3)c(=O)c2c1 | 2 (≈ 7.96 µM) | 28 | 2 (≈ 7.96 µM) | 22 | 4 (≈ 15.9 µM) | inactive | inactive | inactive | 40 |  |  |  |  | zone of inhibition at 200 µg/disc (Staphylococcus aureus [1]): 24 mm; zone of inhibition at 200 µg/disc (Micrococcus luteus [5]): 20 mm; MIC (Micrococcus luteus [6]): 4 µg/mL (≈ 15.9 µM) |
| O=C(/C=C/c1ccccc1)Nc1ccc2nc(SC/C=C/c3ccccc3)n(Cc3ccccc3)c(=O)c2c1 |  |  |  |  |  |  | inactive | inactive | 0.9 | 0.5 |  |  |  | GI50 (HT-29): 0.6 µM; GI50 (OVCAR-4): 0.4 µM; GI50 [15]: > 100 µM; TGI [15]: > 100 µM; GI50 [16]: 2.2 µM; TGI [16]: 76.4 µM; GI50 [17]: 1.9 µM; TGI [17]: > 100 µM; GI50 [18]: 3 µM; TGI [18]: 37 µM; GI50 [19]: 2.2 µM; TGI [19]: 86.9 µM; GI50 [20]: 3.3 µM; TGI [20]: > 100 µM; GI50 [21]: 2.6 µM; TGI [21]: 68 µM; GI50 [22]: > 100 µM; TGI [22]: > 100 µM; GI50 [23]: 2.5 µM; TGI [23]: 68.6 µM |
| O=c1[nH]cc(F)c(=O)[nH]1 [FLUOROURACIL] |  |  |  |  |  |  |  |  |  |  |  |  |  | GI50 [15]: 15.1 µM; TGI [15]: > 100 µM; GI50 [16]: > 100 µM; TGI [16]: > 100 µM; GI50 [17]: 8.4 µM; TGI [17]: > 100 µM; GI50 [18]: 72.1 µM; TGI [18]: > 100 µM; GI50 [19]: 70.6 µM; TGI [19]: > 100 µM; GI50 [20]: 61.4 µM; TGI [20]: > 100 µM; GI50 [21]: 45.6 µM; TGI [21]: > 100 µM; GI50 [22]: 22.7 µM; TGI [22]: > 100 µM; GI50 [23]: 76.4 µM; TGI [23]: > 100 µM |
| C=CCNc1ccc2nc(SC)n(Cc3ccccc3)c(=O)c2c1 |  |  |  | 17 |  | inactive | inactive | inactive | 0.6 | 0.8 | inactive | inactive | inactive |  |
